From patent US5519038A, “N,N'-bis(alkoxyalkyl)-pyridine-2,4-dicarboxylic acid diamines” (Hoechst Aktiengesellschaft, priority 1989, dated 1996)

Legend:
[1] = system: serum 7s-(IV)-collagen (proline hydroxylase and lysine hydroxylase); assay: Pharmacological activity: inhibition of serum 7s-(IV)-collagen synthesis in CCl4-treated rats; format: in vivo; details: versus CCl4 control
[2] = system: liver hydroxyproline (proline hydroxylase and lysine hydroxylase); assay: Pharmacological activity: inhibition of liver hydroxyproline synthesis in CCl4-treated rats; format: in vivo; details: versus CCl4 control
[3] = Enteral absorbability: serum levels after intragastral administration; format: in vivo, female Wistar rats; set-up: unit not given here; details: 50 mg/kg perorally (intragastral), mean of 4 measurements
Experimental: The absorbability was investigated on Wistar rats to which the compounds according to the invention were administered intragastrally. The serum level dropped in the first hours after administration of the substance, and after about 5 hours reached a plateau which still fell only slightly. The good absorbability of the substances can be concluded from the initially very high serum level directly after administration of the substances.
Female Wistar rats of about 150 g body weight are given an intragastral administration of 50 mg/kg of the substance under investigation by means of a stomach probe.
In each case 4 rats are anesthetized after 5; 10; 15; 30; 60; 120; 180 and 240 minutes and exsanguinated via the Vena Cava. The blood is centrifuged immediately and the compound administered is extracted from the serum using ether. After the ether has been evaporated, the residue is taken up in […] of mobile phase. The mobile phase consists of 0.05M phosphoric acid and acetonitrile (4:1). 50 μl of this sample are injected into a high performance liquid chromatography column. Detection is performed under UV of 200 nm with a retention time of 2.2 minutes.

proline hydroxylase [4] = details: in words; Tschank, G. et al., 1987; cited from earlier work
proline hydroxylase [5] = details: in words; K. Majamaa et al., 1984; cited from earlier work
[6] = system: Clq biosynthesis of macrophages; details: in words; W. Muller et al., 1978; cited from earlier work
[7] = 120 minutes, DL = detection limit

COCCNC(=O)c1ccnc(C(=O)NCCOC)c1 [19 (from SA-88-0896), N,N'-bis(2-methoxyethyl)-pyridine-2,4-dicarboxylic acid diamide, reference compound]
Serum 7s-(IV)-collagen [% inhibition] ([1]; 2 × 25 mg, i.p.): 48 % inhibition | Liver hydroxyproline [% inhibition] ([2]; 2 × 25 mg, i.p.): 55 % inhibition

CC(C)OCCCNC(=O)c1ccnc(C(=O)NCCCOC(C)C)c1 [20 (from SA-88-0896), N,N'-bis(3-isopropoxypropyl)-pyridine-2,4-dicarboxylic acid diamide, reference compound]
Serum 7s-(IV)-collagen [% inhibition] ([1]; 2 × 25 mg, p.o.): 11 % inhibition | Liver hydroxyproline [% inhibition] ([2]; 2 × 25 mg, p.o.): 49 % inhibition

COCCCNC(=O)c1ccnc(C(=O)NCCCOC)c1 [Example 1, Pyridine-2,4-dicarboxylic acid bis-N,N'-(methoxypropyl) amide]
Serum level (x, SD) ([3]; 5 minutes): 45.3 ± 15.4 | Serum level (x, SD) ([3]; 10 minutes): 49.8 ± 3.6 | Serum level (x, SD) ([3]; 15 minutes): 39.9 ± 11.0 | Serum level (x, SD) ([3]; 30 minutes): 28.1 ± 3.2 | Serum level (x, SD) ([3]; 60 minutes): 9.4 ± 5.5 | Serum level (x, SD) [3, 7]: 0.3 ± 0.3 | Serum 7s-(IV)-collagen [% inhibition] ([1]; 2 × 2 mg, p.o.): 28 % inhibition | Serum 7s-(IV)-collagen [% inhibition] ([1]; 2 × 10 mg, p.o.): 67 % inhibition | Liver hydroxyproline [% inhibition] ([2]; 2 × 2 mg, p.o.): 62 % inhibition | Liver hydroxyproline [% inhibition] ([2]; 2 × 10 mg, p.o.): 90 % inhibition

CCOCCCNC(=O)c1ccnc(C(=O)NCCCOCC)c1 [Example 2, Pyridine-2,4-dicarboxylic acid bis-N,N'-(ethoxypropyl)amide]
Serum level (x, SD) ([3]; 5 minutes): 51.4 ± 11.2 | Serum level (x, SD) ([3]; 10 minutes): 39.2 ± 4.0 | Serum level (x, SD) ([3]; 15 minutes): 29.4 ± 6.7 | Serum level (x, SD) ([3]; 30 minutes): 15.2 ± 5.6 | Serum level (x, SD) ([3]; 60 minutes): 1.4 ± 1.0 | Serum 7s-(IV)-collagen [% inhibition] ([1]; 2 × 2 mg, p.o.): 2 % inhibition | Serum 7s-(IV)-collagen [% inhibition] ([1]; 2 × 10 mg, p.o.): 35 % inhibition | Liver hydroxyproline [% inhibition] ([2]; 2 × 2 mg, p.o.): 25 % inhibition | Liver hydroxyproline [% inhibition] ([2]; 2 × 10 mg, p.o.): 60 % inhibition

COC(CNC(=O)c1ccnc(C(=O)NCC(OC)OC)c1)OC [Example 3, Pyridine-2,4-dicarboxylic acid bis-N,N'-(2-dimethoxyethyl) amide]
Serum level (x, SD) ([3]; 5 minutes): 8.9 ± 3.1 | Serum level (x, SD) ([3]; 10 minutes): 11.5 ± 0.6 | Serum level (x, SD) ([3]; 15 minutes): 14.7 ± 1.9 | Serum level (x, SD) ([3]; 30 minutes): 10.7 ± 1.9 | Serum level (x, SD) ([3]; 60 minutes): 11.3 ± 1.5 | Serum level (x, SD) [3, 7]: 5.5 ± 0.9 | Serum level (x, SD) ([3]; 180 minutes, DL = detection limit): 2.9 ± 0.5 | Serum level (x, SD) ([3]; 240 minutes, DL = detection limit): 1.7 ± 0.4

O=C(O)c1ccnc(C(=O)O)c1 [pyridine-2,4-dicarboxylic acid]
Activity as inhibitors in the cell culture (proline hydroxylase [4]): effective as inhibitors only in very high concentrations | Inhibition of proline hydroxylase (proline hydroxylase [5]): inhibited effectively

O=C(O)c1ccc(C(=O)O)nc1 [pyridine-2,5-dicarboxylic acid]
Activity as inhibitors in the cell culture (proline hydroxylase [4]): effective as inhibitors only in very high concentrations | Inhibition of proline hydroxylase (proline hydroxylase [5]): inhibited effectively

c1ccc(-c2ccccn2)nc1 [α, α'-dipyridyl]
Inhibition of Clq biosynthesis of macrophages [6]: leads to an inhibition of the Clq biosynthesis of macrophages
